# Test system: cholecystokinin (CCK) level in plasma
# Assay: Plasma CCK levels in human volunteers after ingestion of test substance in orange juice (RIA)
# Type: in vivo
# Conditions: healthy fasted human volunteers, n = 8
# Experimental: The experiment described below was performed in a double-blind, four period, randomised, cross-over, placebo controlled study.
# Eight healthy human volunteers were divided into four groups of two, and were refrained from any food overnight.
# The experiment was repeated four times such, that all the eight volunteers eventually obtained aal the four test substances. During the four hours following the ingestion of the orange juice, blood was taken from the test persons at t=0, 30, 60 90, 120, 180 and 240 minutes after ingestion. CCK analysis was carried out using a radio-immunoassay (RIA) kit of Euro-Diagnostica (cat nr. #RB302) according to the instructions of the manufacturer.
smiles,measurement,setting,value
"N[C@@H](Cc1c[nH]c2ccccc12)C(=O)O [Tryptophan, tryptophan]",Mean CCK levels in plasma,"0 minutes after ingestion, oral in 200 ml orange juice (25 g glucose), mean ± spread",0.64 ± 0.78 pmol/L
same,Mean CCK levels in plasma,"30 minutes after ingestion, oral in orange juice",1.49 ± 1.04 pmol/L
same,Mean CCK levels in plasma,"60 minutes after ingestion, oral in orange juice",1.05 ± 1.06 pmol/L
same,Mean CCK levels in plasma,"90 minutes after ingestion, oral in orange juice",0.83 ± 0.84 pmol/L
same,Mean CCK levels in plasma,"120 minutes after ingestion, oral in orange juice",0.34 ± 0.11 pmol/L
same,Mean CCK levels in plasma,"180 minutes after ingestion, oral in orange juice",0.30 ± 0.00 pmol/L
same,Mean CCK levels in plasma,"240 minutes after ingestion, oral in orange juice",0.30 ± 0.00 pmol/L

# Reference: US7582601B2, “Use of tryptophan rich peptides” (Campina B.V., priority 2003, dated 2009)
